Target: Progesterone receptor (Oryctolagus cuniculus) (UniProt P06186)
Assay: Binding affinity towards rabbit progesterone receptor; call rule not given here

Compound | IC50
O=C(c1ccc(Cl)cc1)N1CCCC(c2ccc(Cl)cc2)=N1 | 4000 nM
O=C(c1ccc(Cl)c(Cl)c1)N1CCCC(c2ccc(F)cc2)=N1 | 250 nM
O=C(c1ccc(Cl)c(Cl)c1)N1CCCC(c2ccccc2)=N1 | 4000 nM
O=C(c1ccc([N+](=O)[O-])cc1)N1CCCC(c2ccc(Cl)cc2)=N1 | 270 nM
O=C(c1cc(Cl)cc(Cl)c1)N1CCCC(c2ccc(Br)cc2)=N1 | 470 nM
O=C(c1ccc([N+](=O)[O-])cc1)N1CCCC(c2ccc(Cl)c(Cl)c2)=N1 | 100 nM
O=C(c1ccc(Cl)c(Cl)c1)N1CCCC(c2ccc(Cl)c(Cl)c2)=N1 | 100 nM
O=C(c1ccc([N+](=O)[O-])cc1)N1CCCC(c2ccc(F)cc2)=N1 | 1020 nM

Target: Progesterone receptor (Oryctolagus cuniculus) (UniProt P06186)
Assay: Binding affinity towards rabbit progesterone receptor; not active

Compound | IC50
COc1ccc(C2=NN(C(=O)c3ccc(C(C)(C)C)cc3)CCC2)cc1 | Not Active
COc1ccc(C(=O)N2CCCC(c3ccc(Cl)cc3)=N2)cc1 | Not Active
COc1ccc(C2=NN(C(=O)c3ccc(Br)cc3)CCC2)cc1 | Not Active
COc1ccc(C2=NN(C(=O)c3ccc(C)cc3)CCC2)cc1 | Not Active
CC(C)(C)c1ccc(C(=O)N2CCCC(c3ccccc3)=N2)cc1 | Not Active
COc1ccc(C2=NN(C(=O)c3cccc(Cl)c3)CCC2)cc1 | Not Active
COc1ccc(C2=NN(C(=O)c3ccc(Cl)cc3)CCC2)cc1 | Not Active
Cc1ccc(C(=O)N2CCCC(c3ccccc3)=N2)cc1 | Not Active
COc1ccc(C2=NN(C(=O)c3ccccc3)CCC2)cc1 | Not Active
COc1ccc(C2=NN(C(=O)c3ccc(Cl)c(Cl)c3)CCC2)cc1 | Not Active
O=C(c1ccc(Cl)cc1)N1CCCC(c2ccccc2)=N1 | Not Active
Cc1ccc(C(=O)N2CCCC(c3ccc(Cl)cc3)=N2)cc1 | Not Active
O=C(c1cccc(Cl)c1)N1CCCC(c2ccc(Cl)cc2)=N1 | Not Active
COc1ccc(C(=O)N2CCCC(c3ccccc3)=N2)cc1 | Not Active
O=C(c1ccccc1)N1CCCC(c2ccc(Cl)cc2)=N1 | Not Active
CC(C)(C)c1ccc(C(=O)N2CCCC(c3ccc(Cl)cc3)=N2)cc1 | Not Active
O=C(c1cccc(Cl)c1)N1CCCC(c2ccccc2)=N1 | Not Active
COc1ccc(C(=O)N2CCCC(c3ccc(OC)cc3)=N2)cc1 | Not Active
O=C(c1ccccc1)N1CCCC(c2ccccc2)=N1 | Not Active
O=C(c1ccc(Br)cc1)N1CCCC(c2ccccc2)=N1 | Not Active

Reference: ChEMBL document CHEMBL1128207 (J Med Chem, 1995)
